# Data published in patent US20260232767A1, “INTERLEUKIN-23 RECEPTOR ANTAGONIST PEPTIDES FOR USE IN THE TREATMENT OF PSORIASIS” (Janssen Pharmaceutica NV, priority 2023, published 2026).
# Test system: subjects with moderate-to-severe plaque psoriasis
# Test: PASI response, Example 1 16-week dose-ranging study
# Assay type: in vivo, human
# Details: for PASI 100% Improvement, subjects / PASI ≥75% Improvement, subjects / PASI ≥90% Improvement, subjects: Combined doses
# Procedure: The Psoriasis Area and Severity Index (PASI) is a system used for assessing and grading the severity of psoriatic lesions and their response to therapy. In the PASI system, the body is divided into four regions: the head, trunk, upper extremities, and lower extremities. Each of these areas is assessed and scored separately for erythema, induration, and scaling, which are each rated on a scale of 0 to 4 and extent of involvement on a scale of 0 to 6. The PASI produces a numeric score (a “PASI score”) that can range from 0 to 72. A higher score indicates more severe disease.
# This was a randomized, double-blind, placebo-controlled, dose-ranging, parallel group, multicenter, interventional study in subjects with moderate-to-severe plaque psoriasis. A target of 240 subjects were enrolled in this study with 40 subjects planned per intervention group.
# Clinician-reported outcomes including Psoriasis Area and Severity Index (PASI), Body Surface Area (BSA), Investigator's Global Assessment (IGA), Nail Psoriasis Area and Severity Index (NAPSI), Fingernail Physician's Global Assessment (f-PGA), Static Physician's Global Assessment of Genitalia (s-PGA-G), Physician's Global Assessment of Hands and/or Feet (hf-PGA), and Scalp Specific Investigator Global Assessment (ss-IGA) were obtained at Week 0, 8, and 16. PASI and IGA were also obtained at Weeks 1, 2, 4, and 12, and at Week 20, four weeks after the administration of the tablets has stopped.
# The primary efficacy endpoint was the proportion of participants achieving a PASI 75 response at Week 16, defined as at least a 75% reduction from baseline in PASI total score.
# For the primary analysis, composite strategy (non-responder imputation) was applied to address intercurrent event #1 (Discontinuation of study intervention due to lack of efficacy or due to an AE of worsening of psoriasis) and #2 (initiation of a protocol-prohibited medication or therapy that could improve psoriasis); and treatment policy strategy (observed data) was applied to intercurrent event #3 (Discontinuation of study intervention due to other reasons). Participants with missing data after application of ICEs are also considered as non-responders.
# In addition to the response analysis, pairwise comparisons of each treatment group versus the placebo group were performed for the primary endpoint of PASI 75 at Week 16. Pairwise comparisons were not adjusted for multiplicity. The Cochran-Mantel-Haenszel chi-square statistic stratified by baseline weight category (≤90 kg, >90 kg) at a 2-sided significance level of 0.05 was used (Table 2).
# [1] = Week 16, trough plasma conc Q2 to <Q3
# [2] = Week 16, trough plasma conc ≥Q3
# [3] = Week 16, 25 mg BID, intermediate plasma concentration quartile <Q1, N=1
# [4] = Week 16, 25 mg BID, intermediate plasma concentration quartile Q1 to <Q2, N=1
# [5] = Week 16, 25 mg BID, intermediate plasma concentration quartile Q2 to <Q3, N=1
# [6] = Week 16, 25 mg BID, intermediate plasma concentration quartile ≥Q3, N=1
# [7] = Week 16, 25 mg QD, intermediate plasma concentration quartile Q1 to <Q2, N=1
# [8] = Week 16, 25 mg QD, intermediate plasma concentration quartile Q2 to <Q3, N=1
# [9] = Week 16, 25 mg QD, intermediate plasma concentration quartile ≥Q3, N=1
# [10] = Week 16, 50 mg QD, intermediate plasma concentration quartile <Q1, N=1
# [11] = Week 16, 50 mg QD, intermediate plasma concentration quartile Q1 to <Q2, N=1
# [12] = Week 16, 50 mg QD, intermediate plasma concentration quartile Q2 to <Q3, N=1
# [13] = Week 16, 50 mg QD, intermediate plasma concentration quartile ≥Q3, N=2
# [14] = Week 16, 100 mg BID, intermediate plasma concentration quartile <Q1, N=1
# [15] = Week 16, 100 mg BID, intermediate plasma concentration quartile Q1 to <Q2, N=1
# [16] = Week 16, 100 mg BID, intermediate plasma concentration quartile Q2 to <Q3, N=1
# [17] = Week 16, 100 mg BID, intermediate plasma concentration quartile ≥Q3, N=2
# [18] = Week 16, 100 mg QD, intermediate plasma concentration quartile <Q1, N=1
# [19] = Week 16, 100 mg QD, intermediate plasma concentration quartile Q1 to <Q2, N=1
# [20] = Week 16, 100 mg QD, intermediate plasma concentration quartile Q2 to <Q3, N=1
# [21] = Week 16, 100 mg QD, intermediate plasma concentration quartile ≥Q3, N=1
# [22] = Week 16, Combined regimens, intermediate plasma concentration quartile <Q1, N=5
# [23] = Week 16, Combined regimens, intermediate plasma concentration quartile Q1 to <Q2, N=5
# [24] = Week 16, Combined regimens, intermediate plasma concentration quartile Q2 to <Q3, N=5
# [25] = Week 16, Combined regimens, intermediate plasma concentration quartile ≥Q3, N=6
smiles,measurement,setting,value
"CC(=O)NCCCC[C@@H]1NC(=O)[C@H](Cc2c[nH]c3c(C)cccc23)NC(=O)[C@H]([C@@H](C)O)NC(=O)[C@H](CC(N)=O)NC(=O)[C@@H](NC(C)=O)C(C)(C)SSC(C)(C)[C@@H](C(=O)N[C@@H](Cc2ccc(OCCN)cc2)C(=O)N[C@@H](Cc2ccc3ccccc3c2)C(=O)NC2(C(=O)N[C@@H](CCC(=O)O)C(=O)N[C@@H](CC(N)=O)C(=O)N[C@@H](Cc3cccnc3)C(=O)N(C)CC(N)=O)CCOCC2)NC1=O [IL-23 receptor antagonist peptide, Ac-[Pen]*-N-T-[W(7-Me)]-[Lys(Ac)]-[Pen]*-Phe[4-(2-aminoethoxy)]-[2-Nal]-[THP]-E-N-[3-Pal]-Sarc-NH2 (*[Pen]-[Pen]* formdisulfidebond)]","PASI 100% Improvement, subjects",[1],4 (15.4%)
same,"PASI ≥75% Improvement, subjects",[1],14 (53.8%)
same,"PASI ≥90% Improvement, subjects",[1],11 (42.3%)
same,"PASI 100% Improvement, subjects",[2],9 (33.3%)
same,"PASI ≥75% Improvement, subjects",[2],22 (81.5%)
same,"PASI ≥90% Improvement, subjects",[2],15 (55.6%)
same,"PASI 100% Improvement, subjects n (%)",[3],0
same,"PASI ≥75% Improvement, subjects n (%)",[3],0
same,"PASI ≥90% Improvement, subjects n (%)",[3],0
same,"PASI 100% Improvement, subjects n (%)",[4],0
same,"PASI ≥75% Improvement, subjects n (%)",[4],1 (100.0%)
same,"PASI ≥90% Improvement, subjects n (%)",[4],0
same,"PASI 100% Improvement, subjects n (%)",[5],0
same,"PASI ≥75% Improvement, subjects n (%)",[5],0
same,"PASI ≥90% Improvement, subjects n (%)",[5],0
same,"PASI 100% Improvement, subjects n (%)",[6],0
same,"PASI ≥75% Improvement, subjects n (%)",[6],1 (100.0%)
same,"PASI ≥90% Improvement, subjects n (%)",[6],1 (100.0%)
same,"PASI 100% Improvement, subjects n (%)",[7],0
same,"PASI ≥75% Improvement, subjects n (%)",[7],0
same,"PASI ≥90% Improvement, subjects n (%)",[7],0
same,"PASI 100% Improvement, subjects n (%)",[8],1 (100.0%)
same,"PASI ≥75% Improvement, subjects n (%)",[8],1 (100.0%)
same,"PASI ≥90% Improvement, subjects n (%)",[8],1 (100.0%)
same,"PASI 100% Improvement, subjects n (%)",[9],0
same,"PASI ≥75% Improvement, subjects n (%)",[9],0
same,"PASI ≥90% Improvement, subjects n (%)",[9],0
same,"PASI 100% Improvement, subjects n (%)",[10],0
same,"PASI ≥75% Improvement, subjects n (%)",[10],1 (100.0%)
same,"PASI ≥90% Improvement, subjects n (%)",[10],0
same,"PASI 100% Improvement, subjects n (%)",[11],1 (100.0%)
same,"PASI ≥75% Improvement, subjects n (%)",[11],1 (100.0%)
same,"PASI ≥90% Improvement, subjects n (%)",[11],1 (100.0%)
same,"PASI 100% Improvement, subjects n (%)",[12],1 (100.0%)
same,"PASI ≥75% Improvement, subjects n (%)",[12],1 (100.0%)
same,"PASI ≥90% Improvement, subjects n (%)",[12],1 (100.0%)
same,"PASI 100% Improvement, subjects n (%)",[13],0
same,"PASI ≥75% Improvement, subjects n (%)",[13],1 (50.0%)
same,"PASI ≥90% Improvement, subjects n (%)",[13],1 (50.0%)
same,"PASI 100% Improvement, subjects n (%)",[14],1 (100.0%)
same,"PASI ≥75% Improvement, subjects n (%)",[14],1 (100.0%)
same,"PASI ≥90% Improvement, subjects n (%)",[14],1 (100.0%)
same,"PASI 100% Improvement, subjects n (%)",[15],1 (100.0%)
same,"PASI ≥75% Improvement, subjects n (%)",[15],1 (100.0%)
same,"PASI ≥90% Improvement, subjects n (%)",[15],1 (100.0%)
same,"PASI 100% Improvement, subjects n (%)",[16],0
same,"PASI ≥75% Improvement, subjects n (%)",[16],1 (100.0%)
same,"PASI ≥90% Improvement, subjects n (%)",[16],0
same,"PASI 100% Improvement, subjects n (%)",[17],2 (100.0%)
same,"PASI ≥75% Improvement, subjects n (%)",[17],2 (100.0%)
same,"PASI ≥90% Improvement, subjects n (%)",[17],2 (100.0%)
same,"PASI 100% Improvement, subjects n (%)",[18],1 (100.0%)
same,"PASI ≥75% Improvement, subjects n (%)",[18],1 (100.0%)
same,"PASI ≥90% Improvement, subjects n (%)",[18],1 (100.0%)
same,"PASI 100% Improvement, subjects n (%)",[19],1 (100.0%)
same,"PASI ≥75% Improvement, subjects n (%)",[19],1 (100.0%)
same,"PASI ≥90% Improvement, subjects n (%)",[19],1 (100.0%)
same,"PASI 100% Improvement, subjects n (%)",[20],0
same,"PASI ≥75% Improvement, subjects n (%)",[20],1 (100.0%)
same,"PASI ≥90% Improvement, subjects n (%)",[20],0
same,"PASI 100% Improvement, subjects n (%)",[21],0
same,"PASI ≥75% Improvement, subjects n (%)",[21],1 (100.0%)
same,"PASI ≥90% Improvement, subjects n (%)",[21],0)
same,"PASI 100% Improvement, subjects n (%)",[22],3 (60.0%)
same,"PASI ≥75% Improvement, subjects n (%)",[22],4 (80.0%)
same,"PASI ≥90% Improvement, subjects n (%)",[22],3 (60.0%)
same,"PASI 100% Improvement, subjects n (%)",[23],2 (40.0%)
same,"PASI ≥75% Improvement, subjects n (%)",[23],3 (60.0%)
same,"PASI ≥90% Improvement, subjects n (%)",[23],2 (40.0%)
same,"PASI 100% Improvement, subjects n (%)",[24],1 (20.0%)
same,"PASI ≥75% Improvement, subjects n (%)",[24],3 (60.0%)
same,"PASI ≥90% Improvement, subjects n (%)",[24],1 (20.0%)
same,"PASI 100% Improvement, subjects n (%)",[25],3 (50.0%)
same,"PASI ≥75% Improvement, subjects n (%)",[25],6 (100.0%)
same,"PASI ≥90% Improvement, subjects n (%)",[25],5 (83.3%)
same,Improvement (reduction) in PASI total score from baseline,"each dose group vs placebo, Week 16",significantly greater improvement
